According to ChEMBL document CHEMBL3997789, “N-(2-(arylmethylimino)ethyl)-7-chloroquinolin-4-amine derivatives, synthesized by thermal and ultrasonic means, are endowed with anti-Zika virus activity” (Eur J Med Chem, 2017):

Tests used:
[1] = test system: Zika virus; assay: Antiviral activity against Zika virus infected in African green monkey Vero cells assessed as inhibition of viral RNA replication at 10 uM after 24 hrs by RT-PCR method relative to control; format: functional
[2] = test system: Vero; assay: Cytotoxicity against African green monkey Vero cells assessed as reduction in cell viability at 10 uM after 72 hrs by XTT assay relative to control; format: cell-based; conditions: chlorocebus sabaeus
[3] = Selectivity index, ratio of CC50 for African green monkey Vero cells to EC50 for Zika virus; format: toxicity; conditions: read-out: Ratio CC50/EC50
[4] = Cytotoxicity against African green monkey Vero cells after 72 hrs by XTT assay; format: cell-based; conditions: chlorocebus sabaeus
[5] = test system: Zika virus; assay: Potency index, ratio of chloroquine EC50 to test compound EC50 for Zika virus; format: functional
[6] = test system: Zika virus; assay: Antiviral activity against Zika virus infected in African green monkey Vero cells assessed as inhibition of viral RNA replication after 24 hrs by RT-PCR method; format: functional

Row | SMILES | inhibition at 10 µM [1] | Activity [2] | selectivity ratio [3] | CC50 at 72 h [4] | Ratio EC50 [5] | EC50 [6]
1 | O=[N+]([O-])c1cccc(C=NCCNc2ccnc3cc(Cl)ccc23)c1 | 59% | – | – | – | – | –
2 | Cc1ccc(C=NCCNc2ccnc3cc(Cl)ccc23)cc1 | 66% | – | – | – | – | –
3 | Clc1ccc2c(NCCN=Cc3ccccn3)ccnc2c1 | 70% | – | – | – | – | –
4 | Clc1ccc(C=NCCNc2ccnc3cc(Cl)ccc23)c(Cl)c1 | – | > 80% | – | – | – | –
5 | Oc1cccc(C=NCCNc2ccnc3cc(Cl)ccc23)c1O | – | > 80% | – | – | – | –
6 | O=[N+]([O-])c1ccc(C=NCCNc2ccnc3cc(Cl)ccc23)o1 | 72% | – | 515 | 412 µM | 10 | 0.8 µM
7 | O=[N+]([O-])c1ccc(C=NCCNc2ccnc3cc(Cl)ccc23)cc1 | 82% | – | 341 | 512 µM | 10 | 1.5 µM
8 | CCN(CC)CCCC(C)Nc1ccnc2cc(Cl)ccc12 (stereo not drawn) [CHLOROQUINE] | 47% | – | – | – | – | –
9 | COc1cccc(C=NCCNc2ccnc3cc(Cl)ccc23)c1O | 74% | – | 304 | 487 µM | 10 | 1.6 µM
10 | COc1cccc(OC)c1C=NCCNc1ccnc2cc(Cl)ccc12 | 75% | – | 305 | 458 µM | 10 | 1.5 µM
11 | Oc1ccccc1C=NCCNc1ccnc2cc(Cl)ccc12 | 57% | – | – | – | – | –
12 | Clc1ccc2c(NCCN=Cc3ccccc3)ccnc2c1 | 76% | – | 407 | 489 µM | 10 | 1.2 µM
13 | Clc1ccc2c(NCCN=Cc3c(Cl)cccc3Cl)ccnc2c1 | – | > 80% | – | – | – | –
14 | COc1ccccc1C=NCCNc1ccnc2cc(Cl)ccc12 | 70% | – | – | – | – | –
15 | Clc1ccc2c(NCCN=Cc3cccnc3)ccnc2c1 | 80% | – | 170 | 578 µM | 5 | 3.4 µM
16 | Fc1ccc(C=NCCNc2ccnc3cc(Cl)ccc23)cc1 | 75% | – | 356 | 534 µM | 10 | 1.5 µM
17 | COc1cc(C=NCCNc2ccnc3cc(Cl)ccc23)cc(OC)c1OC | 41% | – | – | – | – | –
18 | O=[N+]([O-])c1ccc(C=NCCNc2ccnc3cc(Cl)ccc23)s1 | 78% | – | 318 | 478 µM | 10 | 1.5 µM
19 | COc1ccc(OC)c(C=NCCNc2ccnc3cc(Cl)ccc23)c1 | 51% | – | – | – | – | –
20 | Clc1ccc2c(NCCN=Cc3ccc(Br)cc3)ccnc2c1 | 52% | – | – | – | – | –
21 | Clc1ccc2c(NCCN=Cc3ccncc3)ccnc2c1 | 74% | – | 380 | 571 µM | 10 | 1.5 µM
22 | NCCNc1ccnc2cc(Cl)ccc12 | 43% | – | – | – | – | –
